From BindingDB's records for doi:10.1021/jm0208119 (Westfälische Wilhelms-Universität Münster, 2002)

Target: histone deacetylase HD-1, RPD3 homologue (Zea mays)
Experiment: Inhibition of in vitro enzyme activity measured in a highly purified maize Histone deacetylase 1 preparation

Row | IC50 | Compound
1 | 40 nM | O=C(CCCCCCC(=O)N[C@@H](Cc1ccccc1)C(=O)NCc1ccccc1)NO [Octanedioic acid ((S)-1-benzylcarbamoyl-2-phenyl-ethyl)-amide hydroxyamide]
2 | 25 nM | O=C(CCCCCCC(=O)N[C@@H](Cc1ccccc1)C(=O)NCCc1ccccc1)NO [Octanedioic acid hydroxyamide ((S)-1-phenethylcarbamoyl-2-phenyl-ethyl)-amide]
